In ChEMBL document CHEMBL1134440, “Discovery of 4-amino-5-(3-bromophenyl)-7-(6-morpholino-pyridin-3-yl)pyrido[2,3-d]pyrimidine, an orally active, non-nucleoside adenosine kinase inhibitor” (J Med Chem, 2001) one finds IC50 data, which are given here for 20 compounds.

A value given as a limit tells only on which side of the number the result lay.

The target in the first assay is Adenosine kinase (Homo sapiens, UniProt P55263). Kind of assay: Inhibition of adenosine phosphorylation in confluent IMR-32 (human neuroblastoma) cells. In kind it is functional, cell-based.
Sequence of Adenosine kinase (Homo sapiens, UniProt P55263) (P55263 whole entry): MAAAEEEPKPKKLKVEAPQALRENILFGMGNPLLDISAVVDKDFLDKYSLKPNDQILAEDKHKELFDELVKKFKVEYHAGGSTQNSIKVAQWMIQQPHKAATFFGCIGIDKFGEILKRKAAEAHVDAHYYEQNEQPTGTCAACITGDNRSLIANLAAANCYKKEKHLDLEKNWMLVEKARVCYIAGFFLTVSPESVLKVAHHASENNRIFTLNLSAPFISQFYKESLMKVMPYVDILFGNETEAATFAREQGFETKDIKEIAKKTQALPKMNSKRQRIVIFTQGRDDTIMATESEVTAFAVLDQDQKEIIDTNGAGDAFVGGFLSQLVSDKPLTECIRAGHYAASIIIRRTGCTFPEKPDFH
In general, IC50 refers to the point on the concentration scale where inhibition reaches its midpoint. High values mean weaker potency in that assay, low ones greater potency in that assay. For the compound `NC[C@H]1O[C@@H](n2cnc3c(N)ncnc32)[C@H](O)[C@@H]1O`, the IC50 is 6330 nM.
The same measure, in the same setting: the figure for `CN(C)c1ccc(-c2cc(C3CCCCC3)c3c(N)ncnc3n2)cc1` is 467 nM; for `COc1ccc(-c2cc3c(N)ncnc3nc2-c2ccc(N(C)C)cc2)cc1` it is 567 nM; for `CN(C)c1ccc(-c2ccc3c(N)ncnc3n2)cc1` it is greater than 10000 nM.
Still for that read-out and setting: the figure for `Nc1ncnc(N[C@@H]2O[C@H](CO)[C@@H](O)[C@H]2O)c1[N+](=O)[O-]` is 26000 nM; for `CN(C)c1ccc(-c2nc3ncnc(N)c3nc2-c2ccccc2)cc1` it is 333 nM; for `Nc1ncnc2nc(-c3ccc([N+](=O)[O-])cc3)cnc12` it is greater than 10000 nM.
Turning to `COC(=O)c1cccc(-c2cc3c(N)ncnc3nc2-c2ccc(N(C)C)cc2)c1`, half-maximal inhibition (IC50) was put at 700 nM.
`Nc1ncnc2nc(-c3ccccc3)cnc12` came in with an IC50 greater than 10000 nM.
The compound `Nc1ncnc2nc(-c3ccc(N4CCOCC4)cc3)cnc12` had an IC50 of 1000 nM.
The compound `Nc1ncnc2nc(-c3ccc(N4CCOCC4)nc3)cc(-c3cccc(Br)c3)c12` gave a concentration for half-maximal inhibition (IC50) of 50 nM.
As for `C[C@H]1O[C@@H](n2cc(-c3ccccc3)c3c(Nc4ccc(F)cc4)ncnc32)[C@H](O)[C@@H]1O`, the half-maximal inhibitory concentration (IC50) stood at 134 nM.
`CN(C)c1ccc(-c2cnc3c(N)ncnc3n2)cc1` came in with a 50% inhibitory concentration (IC50) of 3600 nM.
As to `CN(C)c1ccc(-c2nc3ncnc(N)c3cc2-c2ccc(C(C)(C)C)cc2)cc1`, the IC50 is greater than 1000 nM.
The same measure, in the same setting: the figure for `Cc1ccc(-c2cc3c(N)ncnc3nc2-c2ccc(N(C)C)cc2)cc1` is 500 nM; for `Nc1ccc(-c2cnc3c(N)ncnc3n2)cc1` it is greater than 10000 nM; for `COc1ccc(-c2cnc3c(N)ncnc3n2)cc1` it is greater than 10000 nM.
The compound `CN(C)c1ccc(-c2cc(-c3ccccc3)c3c(N)ncnc3n2)cc1` registered a concentration for half-maximal inhibition (IC50) of 467 nM.
In turn, `CN(C)c1ccc(-c2cc(-c3cccc(Br)c3)c3c(N)ncnc3n2)cn1` gave an IC50 of 32 nM.
`CN(C)c1ccc(-c2cc(-c3cccc(Br)c3)c3c(N)ncnc3n2)cc1`: half-maximal inhibition (IC50) was put at 167 nM.

In the next assay the target is Adenosine kinase (Rattus norvegicus, UniProt Q64640). Kind of assay: In vitro inhibition of Adenosine kinase (AK).
Sequence of Adenosine kinase (Rattus norvegicus, UniProt Q64640) (Q64640 whole entry): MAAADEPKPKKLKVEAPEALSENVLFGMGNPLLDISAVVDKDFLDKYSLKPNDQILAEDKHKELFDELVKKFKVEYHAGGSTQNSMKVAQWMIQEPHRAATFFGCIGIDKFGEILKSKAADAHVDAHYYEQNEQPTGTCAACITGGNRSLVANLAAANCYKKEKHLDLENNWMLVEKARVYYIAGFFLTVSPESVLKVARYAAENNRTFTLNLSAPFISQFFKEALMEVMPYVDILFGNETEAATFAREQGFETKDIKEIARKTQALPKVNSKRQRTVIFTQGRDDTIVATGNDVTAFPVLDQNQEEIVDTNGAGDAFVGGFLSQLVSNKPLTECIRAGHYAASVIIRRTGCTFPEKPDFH
For the compound `NC[C@H]1O[C@@H](n2cnc3c(N)ncnc32)[C@H](O)[C@@H]1O`, it took 15 nM to reach half-maximal inhibition (IC50).
`CN(C)c1ccc(-c2cc(C3CCCCC3)c3c(N)ncnc3n2)cc1` displayed an IC50 of 8.3 nM.
For the compound `COc1ccc(-c2cc3c(N)ncnc3nc2-c2ccc(N(C)C)cc2)cc1`, the concentration for half-maximal inhibition (IC50) is 91.7 nM.
In turn, `CN(C)c1ccc(-c2ccc3c(N)ncnc3n2)cc1` displayed a 50% inhibitory concentration (IC50) of 773 nM.
Still for that read-out and setting: the figure for `Nc1ncnc(N[C@@H]2O[C@H](CO)[C@@H](O)[C@H]2O)c1[N+](=O)[O-]` is 2000 nM; for `CN(C)c1ccc(-c2nc3ncnc(N)c3nc2-c2ccccc2)cc1` it is 25 nM.
In turn, `Nc1ncnc2nc(-c3ccc([N+](=O)[O-])cc3)cnc12` gave an IC50 of 4750 nM.
On to `COC(=O)c1cccc(-c2cc3c(N)ncnc3nc2-c2ccc(N(C)C)cc2)c1`, for which it took 66.7 nM to reach half-maximal inhibition (IC50).
As for `Nc1ncnc2nc(-c3ccccc3)cnc12`, the IC50 amounted to 5500 nM.
The compound `Nc1ncnc2nc(-c3ccc(N4CCOCC4)cc3)cnc12` yielded a 50% inhibitory concentration (IC50) of 400 nM.
For the compound `Nc1ncnc2nc(-c3ccc(N4CCOCC4)nc3)cc(-c3cccc(Br)c3)c12`, the IC50 was found to be 1.7 nM.
On to `C[C@H]1O[C@@H](n2cc(-c3ccccc3)c3c(Nc4ccc(F)cc4)ncnc32)[C@H](O)[C@@H]1O`, for which the IC50 is 2.8 nM.
Consider `CN(C)c1ccc(-c2cnc3c(N)ncnc3n2)cc1`, for which inhibition was half-maximal at 440 nM (IC50).
For `CN(C)c1ccc(-c2nc3ncnc(N)c3cc2-c2ccc(C(C)(C)C)cc2)cc1`, the IC50 turned out to be 62.5 nM.
`Cc1ccc(-c2cc3c(N)ncnc3nc2-c2ccc(N(C)C)cc2)cc1`: the IC50 turned out to be 73.3 nM.
The same measure, in the same setting: as for `Nc1ccc(-c2cnc3c(N)ncnc3n2)cc1`, the figure is 1750 nM.
On the same count and under the same terms, as for `COc1ccc(-c2cnc3c(N)ncnc3n2)cc1`, the figure is 2000 nM; as for `CN(C)c1ccc(-c2cc(-c3cccc(Br)c3)c3c(N)ncnc3n2)cn1`, 1.8 nM.
